How the values were obtained:
[1] = tested on: cycling rats of Sprague-Dawley strain; assay: Estrous suppression assay (long term injectable contraceptive), anti-ovulatory activity in female rat model; type: in vivo; conditions: single s.c. injection of milled suspension, adult female rats, vaginal smear until cycling re-established
Protocol: A stainless steel grinding bowl with a lid and seal along with three 10 mm stainless steel balls were used to formulate suspensions for injection. The compounds were weighed and added to the grinding bowl and steel balls. 1.5 mL of formulation vehicle was added to the grinding bowl, via pipette. The milling conditions used as listed: 20 minutes, 20 Hz. After milling, the suspension was transferred to a volumetric flask. Formulation vehicle was used to dilute the milled suspension to produce the desired injection dose.
Protocol: Testing Long Term Injectable Contraceptive
Adult female rats (180-200 g body weight) were used for the study (adapted over 1 week before starting the study).
For each compound, two doses were tested (2 and 4 mg/rat).
Long acting properties of each preparation had been determined in an estrous suppression assay using virgin, mature (180-200 g) cycling rats of Sprague-Dawley strain. Upon receipt the animals were smeared daily (procedure described as below) for cyclicity and those who were showing two consecutive cycles were used for the study. Each animal was injected subcutaneously (s.c) with 0.5 ml of the test preparation (in the vehicle as described above) on the same day regardless of the stage of the cycle. Each compound was initially tested in 6 rats. Everyday excluding weekend, smears were taken starting on the day after injection and continued until such time that cornification of vaginal epithelium was observed and cycling was re-established (Bialy G, Blye R P, Enever R P, Naqvi R H, Lindberg M C. Long-acting contraceptive agents: structure activity relationships in a series of norethisterone and levonorgestrel esters. Steroids 1983, v 41, p 361).
Epithelium and lamina propria of the vagina undergo characteristic changes during the cycle. This cyclical changes was used in rodents to stage cycle diagnosis (1). During the cycle, it comes to a complete replacement of the epithelium. In order to determine the stage of the cycle, vaginal solution/mucus was collected as follows. The rat was fixed with one hand. With the other hand, a small moistened cotton swab (2-3 mm diameter) was inserted into the vagina and removed by gently rotating cell material. This was done with caution, since excessive irritation could induce a pseudopregnancy stage in animals. A drop of water on a slide was applied and dabbed the cotton swab in it. The smear was assessed under the microscope (Nikon Eclipse Ti, Magnification: 10×0.25) (Nelson J F, Felicio L S, Randall P K, Sims C, Finch C E. A longitudinal study of estrous cyclicity in aging C57BL/6J mice: I. Cycle frequency, length and vaginal cytology. Biol Reprod. 1982 September; 27(2):327-39).
The smear of diestrous is characterized by some neutrophils and a few small degenerated, irregularly shaped epithelial cells.
The microscopic image of the smear contains a moderate number of epithelial cells with large nuclei, which are usually visible as cell clusters.
The lamina propria leukocytes migrate into the epithelium. The smear is characterized by many big horny epithelial cells.
In metestrous stage, masses of polymorphonuclear cells with some cornified epithelial cells in the smear will become visible.

[2] = cited from earlier work
[3] = 3 month injectable product Depo Provera; cited from earlier work

SMILES	Rat Anti-ovulatory Activity Days +/− 2 ([1]; 2 mg/rat) [days]	also measured
C[C@H](O)C(=O)[C@@]1(C)CCC2C3CCC4=CC(=O)CCC4=C3CC[C@@]21C (some centres unmarked) [EC213 TMG, reference compound]	19	–
C#C[C@]1(OC(=O)CCC)CCC2C3CCC4=CC(=O)CCC4C3CC[C@@]21CC (some centres unmarked) [EC600 LB, Levonorgestrel butanoate, reference compound]	33	contraceptive effect in the clinic [2]: failed in the clinic to reach a contraceptive effect for up to 6 month
C#C[C@]1(OC(=O)COc2cccc(S(N)(=O)=O)c2)CCC2C3CCC4=CC(=O)CCC4C3CC[C@@]21CC (some centres unmarked) [EC601]	10	Rat Anti-ovulatory Activity Days +/− 2 ([1]; 4 mg/rat): 34 days
C#C[C@]1(OC(=O)COc2ccc(S(N)(=O)=O)cc2)CCC2C3CCC4=CC(=O)CCC4C3CC[C@@]21CC (some centres unmarked) [EC624]	20.5	–
C#C[C@]1(OC(=O)COc2ccccc2)CCC2C3CCC4=CC(=O)CCC4C3CC[C@@]21CC (some centres unmarked) [EC625]	43	Rat Anti-ovulatory Activity Days +/− 2 ([1]; 4 mg/rat): 69 days
C#C[C@]1(OC(=O)CCc2ccccc2)CCC2C3CCC4=CC(=O)CCC4C3CC[C@@]21CC (some centres unmarked) [EC626]	–	Rat Anti-ovulatory Activity Days +/− 2 ([1]; 4 mg/rat): 20 days
C#C[C@]1(OC(=O)/C=C/c2ccccc2)CCC2C3CCC4=CC(=O)CCC4C3CC[C@@]21CC (some centres unmarked) [EC627]	–	Rat Anti-ovulatory Activity Days +/− 2 ([1]; 4 mg/rat): 6 days
C#C[C@]1(OC(=O)COc2cccc(C)c2)CCC2C3CCC4=CC(=O)CCC4C3CC[C@@]21CC (some centres unmarked) [EC628]	–	Rat Anti-ovulatory Activity Days +/− 2 ([1]; 4 mg/rat): 36 days
C#C[C@]1(OC(=O)COc2ccc(C)cc2)CCC2C3CCC4=CC(=O)CCC4C3CC[C@@]21CC (some centres unmarked) [EC629]	–	Rat Anti-ovulatory Activity Days +/− 2 ([1]; 4 mg/rat): 44.8 days
C#C[C@]1(OC(=O)COc2cccc(Cl)c2)CCC2C3CCC4=CC(=O)CCC4C3CC[C@@]21CC (some centres unmarked) [EC630]	–	Rat Anti-ovulatory Activity Days +/− 2 ([1]; 4 mg/rat): 46.5 days
C#C[C@]1(OC(=O)COc2ccc(Cl)cc2)CCC2C3CCC4=CC(=O)CCC4C3CC[C@@]21CC (some centres unmarked) [EC631]	33.5	–
C#C[C@]1(OC(=O)COc2ccccc2C)CCC2C3CCC4=CC(=O)CCC4C3CC[C@@]21CC (some centres unmarked) [EC632]	8.5	–
C#C[C@]1(OC(=O)COc2ccccc2Cl)CCC2C3CCC4=CC(=O)CCC4C3CC[C@@]21CC (some centres unmarked) [EC633]	16.3	–
C#C[C@]1(OC(=O)COc2ccc(OC)cc2)CCC2C3CCC4=CC(=O)CCC4C3CC[C@@]21CC (some centres unmarked) [EC634]	30	–
C#C[C@]1(OC(=O)COc2ccccc2OC)CCC2C3CCC4=CC(=O)CCC4C3CC[C@@]21CC (some centres unmarked) [EC635]	13	–
C#C[C@]1(OC(=O)COc2cccc(OC)c2)CCC2C3CCC4=CC(=O)CCC4C3CC[C@@]21CC (some centres unmarked) [EC636]	13	–
C#C[C@]1(OC(=O)[C@H](C)Oc2ccccc2)CCC2C3CCC4=CC(=O)CCC4C3CC[C@@]21CC (some centres unmarked) [EC638]	8	–
C#C[C@]1(OC(=O)COc2cccc(F)c2)CCC2C3CCC4=CC(=O)CCC4C3CC[C@@]21CC (some centres unmarked) [EC639]	31	–

SMILES	Rat Anti-ovulatory Activity Days +/− 2 ([1]; 2 mg/rat) [days]	also measured
C#C[C@]1(OC(=O)COc2ccc(F)cc2)CCC2C3CCC4=CC(=O)CCC4C3CC[C@@]21CC (some centres unmarked) [EC640]	31	–
C#C[C@]1(OC(=O)COc2cccnc2)CCC2C3CCC4=CC(=O)CCC4C3CC[C@@]21CC (some centres unmarked) [EC641]	23	–
C#C[C@]1(OC(=O)COc2ccccc2F)CCC2C3CCC4=CC(=O)CCC4C3CC[C@@]21CC (some centres unmarked) [EC642]	41	–
C#C[C@]1(OC(=O)CCc2ccccc2OC)CCC2C3CCC4=CC(=O)CCC4C3CC[C@@]21CC (some centres unmarked) [EC643]	3	–
C#C[C@]1(OC(=O)COc2ccc3c(c2)OCO3)CCC2C3CCC4=CC(=O)CCC4C3CC[C@@]21CC (some centres unmarked) [EC644]	20	–
C#C[C@]1(OC(=O)COc2ccc(S(C)(=O)=O)cc2)CCC2C3CCC4=CC(=O)CCC4C3CC[C@@]21CC (some centres unmarked) [EC645]	31	–
C#C[C@]1(OC(=O)CNc2ccccc2)CCC2C3CCC4=CC(=O)CCC4C3CC[C@@]21CC (some centres unmarked) [EC646]	13	–
C#C[C@]1(OC(=O)CSc2ccccc2)CCC2C3CCC4=CC(=O)CCC4C3CC[C@@]21CC (some centres unmarked) [EC647]	20	–
C#C[C@]1(OC(=O)COc2ccc(S(N)(=O)=O)cc2Cl)CCC2C3CCC4=CC(=O)CCC4C3CC[C@@]21CC (some centres unmarked) [EC648]	18	–
C#C[C@]1(OC(=O)COc2ccc(S(N)(=O)=O)cc2C)CCC2C3CCC4=CC(=O)CCC4C3CC[C@@]21CC (some centres unmarked) [EC649]	18.5	–
C#C[C@]1(OC(=O)COc2ccc(S(N)(=O)=O)c(Cl)c2)CCC2C3CCC4=CC(=O)CCC4C3CC[C@@]21CC (some centres unmarked) [EC650]	18.5	–
C#C[C@]1(OC(=O)COc2ccccc2)CCC2C3CCC4=CC(=O)CCC4C3C(=C)C[C@@]21CC (some centres unmarked) [EC651]	52	–
C#C[C@]1(OC(=O)COc2cc(C)on2)CCC2C3CCC4=CC(=O)CCC4C3CC[C@@]21CC (some centres unmarked) [EC652]	27	–
C#C[C@]1(OC(=O)COc2ccc(S(N)(=O)=O)c(F)c2)CCC2C3CCC4=CC(=O)CCC4C3CC[C@@]21CC (some centres unmarked) [EC653]	15	–
C#C[C@]1(OC(=O)COc2cccc(-c3ccccc3)c2)CCC2C3CCC4=CC(=O)CCC4C3CC[C@@]21CC (some centres unmarked) [EC654]	8	–
C#C[C@]1(OC(=O)COc2ccc(-c3ccccc3)cc2)CCC2C3CCC4=CC(=O)CCC4C3CC[C@@]21CC (some centres unmarked) [EC655]	37	–
C#C[C@]1(OC(=O)COc2ccc(C#N)cc2)CCC2C3CCC4=CC(=O)CCC4C3CC[C@@]21CC (some centres unmarked) [EC658]	29	–
CC(=O)O[C@]1(C(C)=O)CC[C@H]2[C@@H]3C[C@H](C)C4=CC(=O)CC[C@]4(C)[C@H]3CC[C@@]21C [MPA, medroxyprogesterone acetate, reference compound]	22	Rat Anti-ovulatory Activity Days +/− 2 ([1]; 4 mg/rat): 40 days; undesirable effects [3]: increase of insulin levels, reduction of bone mass density, weight gain and enhanced risks for HIV infections

Source: US20190117670A1, “LONGER-ACTING PROGESTIN PRODRUG CONTRACEPTIVES” (Evestra, Inc., priority 2017, published 2019)
